In patent US20170173106A1, “Polypeptide Fragments of 168A-T2 and Compositions Comprising Them for Use in Treating Cancer” (GENE SIGNAL INTERNATIONAL SA, priority 2014, published 2017):
Like-named read-outs stand apart in the source and are kept apart here. Values belong to the molecule of their own block, whether it stands above or below them. Ends that are not written are not given here.

Tests used:
endostatin = assay: Endostatin production by HUVECs (ELISA); format: cell-based, human; conditions: inhibitor of MMPs GM6001 alone; FIG. 16
Procedure: HUVECs were transfected with siRNA using transfecting agent GENJET according to the manufacturer's instructions. After 48 hrs of incubation, supernatants were collected, protein expression tested by western blots and endostatin quantified.
Endostatin levels were quantified by ELISAs on lysates of HUVECs incubated at rising concentrations of P3 or PCT for 48 hrs.
In order to evaluate the role of metalloproteinases (MMPs) in endostatin production, a polyvalent inhibitor of MMPs, GM6001 was used. The concentration of endostatin in supernatants is at 6.2 ng/mg of protein of the lysates/48 hrs. […] GM6001 inhibits endostatin production induced by P3. MMPs might then be implicated in endostatin production induced by P3.
HUVECs were incubated for 48 hrs in an EGM2-MV media with an anti-CD151 antibody (11G5a) or an irrelevant antibody (negative control unable to recognize any protein). Then endostatin levels were measured by ELISA in supernatants.
HUVECs cells were transfected with specific siRNA of CD151 and CD9. Protein expression was analyzed in western blots. In parallel, endostatin levels were measured by ELISA in supernatants. […] Levels of endostatin in supernatant of HUVECs cells transfected with siRNA were measured. […] On the contrary, levels of endostatin increased at 9.4 ng/mg of protein lysates/48 hrs in HUVECs depleted in CD151 (FIG. 18B). CD151 is thus involved in the production of endostatin.

UMUC-3 cells = assay: Tumor growth test in vivo, UMUC-3 xenograft (no CD9P-1 expression); set-up: species or system mice; conditions: cisplatin 2.5 mg/kg i.p.; 13 days
Procedure: Tumor sizes were measured and tumor volume was calculated. Mice were weighted to detect symptoms of pain.
The effect of P3 was then tested on the tumor growth in an in vivo model of xenograft of UMUC-3.

Calu-6 cells = assay: Tumor volume in vivo, Calu-6 xenograft; set-up: species or system mice; conditions: CDDP alone 5 mg/kg i.p. every other day for 16 days
Procedure: All experiments were reviewed by Genopole's institutional animal care and use committee, and performed in accordance with institutional guidelines for animal care. Female BALB/c nu/nu mice (n=24) were used at 5-6 weeks of age. The animals were housed in laminar air-flow cabinets under pathogen-free conditions with a 14 hrs light/10 hrs dark schedule, and fed autoclaved standard chow and water ad libitum. Calu-6 cells (5×10^6 cells in 200 μl of serum-free RPMI) were subcutaneously injected into the right flank of mice. After engraftment (10 days), tumor volume (TV) was measured (Balsari et al, Eur J Cancer. 2004 May; 40(8):1275-81) and animals were randomized and separated into four groups of six animals each, to be treated by i.p. injection (200 μl per injection) every other day for 16 days (eight injections). Control mice (group 1) received the vehicle (0.9% saline). […] Pegylated peptide 4 (P4-PEG) was dissolved in vehicle at 1 mg/ml and injected at a dose of 10 mg/kg (group 3). In group 4, mice received both CDDP and P4-PEG. Tumor volume and body weight were measured every other day over the treatment period (16 days).

NCI-H460 cells = conditions: 13 days; for average tumoral volume: Example 6, n=5
Procedure: (§3) Swiss nu/nu female mice aged 5-6 weeks were anesthetized with xylazine (12 mg/kg) and ketamine (80 mg/kg). Tumor cells (NCI-H460 or UMUC-3) were implanted sub-cutanously in the mice flanks. […] Tumor sizes were measured and tumor volume was calculated. Mice were weighted to detect symptoms of pain.
Evaluating the effect of the peptides on tumor growth in vivo was performed. Cancer cells NCI-H460 were injected by sub-cutaneous administration in the Swiss-nu/nu mice flanks (n=20). 10 days following inoculation of tumor cells, mice were randomized in 2 groups of 5 mice. Mice of different groups were treated as follow: mice of group 1 were treated with solvent (200 μL/injection/48 hrs); mice of group 2 were treated with P3 (200 μL of 1 mg/mL of P3 in the solvent/injection/48 hrs). All the treatments were performed by intraperitoneal injection for 13 successive days.
The inoculation of NCI-H460 cells (tumoral volume of 100 to 150 mm^3), mice (n=35) were randomized in 7 groups comprising 5 mice each. […] All the treatments were performed by intraperitoneal injection for 13 successive days.

HUVECs [1] = assay: Cellular proliferation test (MTT) on HUVECs; format: cell-based, human; conditions: 48 h
Procedure: Evaluation of cellular proliferation was performed using 4,5-diMethylThiazol-2-yl)-2,5 diphenylTetrazolium bromide (MTT) test. After 18 hrs of culture, the media was changed by EBM2 supplemented with gentamycine and 5% SVF. Different concentrations of peptides were added under a volume of 10 μL/well. Cells were incubated for 48 hrs at 37° C. MTT was added (50 μL/well) to the cells for 3 hrs.
Cells were grown for 48 h in EGM2-MV and proliferation was quantified by MTT assay.

CD151 [2] = target: T1, CD151 (Homo sapiens, UniProt P48509); assay: CD151 in lysates of NCI-H460 xenografts (Western blot); format: in vivo, mice; conditions: 10 mg/kg every other day for 13 days
T1 construct: from tissue; host or cells: homogenates of Matrigel implants with NCI-H460 cells, and NCI-H460 xenografts, from Swiss nu/nu mice
T1 sequence (P48509 1-253): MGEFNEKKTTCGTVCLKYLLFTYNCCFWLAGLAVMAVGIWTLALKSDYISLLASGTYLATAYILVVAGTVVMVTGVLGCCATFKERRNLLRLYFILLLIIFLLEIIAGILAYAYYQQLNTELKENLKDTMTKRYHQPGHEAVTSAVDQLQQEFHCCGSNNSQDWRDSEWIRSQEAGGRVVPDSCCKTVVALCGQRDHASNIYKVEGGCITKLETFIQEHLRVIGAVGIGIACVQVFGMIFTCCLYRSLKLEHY
Procedure: (§1) In lysates from xenografts NCI-H460 cells from mice treated for 13 days every other day by P3 or P4 (10 mg/kg), a decrease of CD151 level is observed respectively of 73% and 50% compared to mice treated with the solvent (FIGS. 12A and B). No change in CD9P-1 was observed (FIG. 12A).

[3] = mouse, in vivo
Procedure: as §3
In parallel, to investigate the toxic effect of peptides tested on mice, the mice weights were measured along the treatment.

HUVECs [4] = assay: Capillaries formation by HUVECs on Matrigel; format: cell-based, human; conditions: 6.5 μM, 13 μM and 33 μM, 18 h
Procedure: Evaluating the formation of capillaries on Matrigel® was performed by angiogenesis test in vitro described in Grant et al (1989 Cell 58, 933-943). Matrigel® was dropped down the wells of the 96 well plates and maintained for 30 min at 37° C. for the Matrigel® solidification. HUVECs cells were then seeded and 50 μL, of peptide added.
Plates were then incubated for 18 hrs at 37° C. cells were then washed with calcein solution (50 μL/well at 8 μM) and incubated for 20 min. HUVECs alive metabolize calcein in a green fluorescent component.
Peptides were added to the culture medium (EGM2-MV) at concentrations 6.5 μM, 13 μM and 33 μM after inoculation of cells. Plates were incubated at 37° C. for 18 h. Fluorescence labeling was achieved by addition of calcein. Pictures were shot with a fluorescence microscope equipped with a camera (zoom ×40).

[5] = test system: Matrigel® implants enriched in NCI-H460 cells; assay: Angiogenesis test in vivo (Matrigel implants, hemoglobin); set-up: species or system mice; conditions: 10 mg/kg intraperitoneal daily for 12 days; for color of implants: implants collected day 13
Procedure: Implants of Matrigel® represent an in vivo model of angiogenesis. NCI-H460 cells are used to provide growth factors necessary for blood vessels formation within the Matrigel® matrix. The mixture was then injected sub-cutanously in the Swiis nu/nu mice. Daily treatments with the peptides (1 mg/mL) were performed by injections intraperitoneally. Implants were collected after 12 days.
The dosage of hemoglobin in implants was used as an indicator of the vessels of the implant. The implants were weighted and crushed.
An in vivo model of angiogenesis as described in Passaniti et al. (1992 Experimental gerontology 27, 559-566) was utilized to evaluate the effect of P3 and P4. Briefly, cancer cells were incorporated into Matrigel®, cancer cells provide growth and angiogenic factors necessary for blood vessel formation. The mixture was injected immediately under a sub-cutaneous form of the mice flanks. The day following the inoculation, 20 mice (Swiss nu-nu) were randomized in 4 groups containing 5 mice each and the treatments started as follows: mice of group 1 were treated by 200 μL/injection/day of solvent alone for 12 successive days; mice of group 2 were treated by 200 μL/injection of a P1 solution (1 mg/mL) in a solvent/injection/day for 12 successive days; mice of group 3 were treated by 200 μL of a P3 solution (1 mg/mL) in a solvent/injection/day for 12 successive days; mice of group 4 were treated by 200 μL of a P4 solution (1 mg/mL) in a solvent/injection/day for 12 successive days.

CD151 [6] = assay: CD151 in homogenates of Matrigel implants enriched with NCI-H460 (Western blot); format: in vivo, mice; conditions: 10 mg/kg for 12 days
Procedure: (§2) Analysis of the expression of CD151 and CD9P-1 were performed on western blots on homogenates of implants of Matrigel® enriched with NCI-H460. CD151 profile is characterized by 2 bands on western blots; one at 28 kDa corresponds to CD151 and another one at 26 kDa corresponding to a degraded product of CD151.

CD9P-1 [7] = assay: CD9P-1 in homogenates of Matrigel implants enriched with NCI-H460 (Western blot); format: in vivo, mice; conditions: 10 mg/kg for 12 days
Procedure: as §2

CD9P-1 [8] = target: T2, CD9P-1 (Homo sapiens, UniProt Q9P2B2); assay: CD9P-1 in lysates of NCI-H460 xenografts (Western blot); format: in vivo, mice; conditions: 10 mg/kg every other day for 13 days
T2 construct: from tissue; host or cells: homogenates of Matrigel implants with NCI-H460 cells, and NCI-H460 xenografts, from Swiss nu/nu mice
T2 sequence (Q9P2B2 26-879): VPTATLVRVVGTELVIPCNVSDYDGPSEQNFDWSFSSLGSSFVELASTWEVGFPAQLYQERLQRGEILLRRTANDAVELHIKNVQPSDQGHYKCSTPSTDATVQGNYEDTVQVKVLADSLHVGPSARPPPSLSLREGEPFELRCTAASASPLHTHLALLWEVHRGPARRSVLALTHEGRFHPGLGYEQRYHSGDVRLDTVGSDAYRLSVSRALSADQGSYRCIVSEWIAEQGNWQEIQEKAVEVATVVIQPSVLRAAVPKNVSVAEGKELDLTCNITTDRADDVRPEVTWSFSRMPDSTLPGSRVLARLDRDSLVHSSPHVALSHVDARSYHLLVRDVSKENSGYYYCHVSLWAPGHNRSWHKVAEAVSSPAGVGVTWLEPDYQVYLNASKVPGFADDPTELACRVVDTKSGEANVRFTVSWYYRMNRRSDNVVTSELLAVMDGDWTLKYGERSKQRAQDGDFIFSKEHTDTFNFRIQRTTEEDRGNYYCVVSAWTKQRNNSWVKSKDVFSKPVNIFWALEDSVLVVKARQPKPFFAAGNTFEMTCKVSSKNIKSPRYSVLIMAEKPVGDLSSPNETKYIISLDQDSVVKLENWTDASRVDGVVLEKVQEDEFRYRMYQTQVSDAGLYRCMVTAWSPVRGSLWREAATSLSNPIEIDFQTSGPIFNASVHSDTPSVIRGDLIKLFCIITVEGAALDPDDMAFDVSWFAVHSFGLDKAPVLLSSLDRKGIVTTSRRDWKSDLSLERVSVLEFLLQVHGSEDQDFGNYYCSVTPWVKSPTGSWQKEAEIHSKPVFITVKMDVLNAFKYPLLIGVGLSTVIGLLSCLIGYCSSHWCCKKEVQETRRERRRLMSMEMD
Procedure: as §1

endothelial cells = conditions: results disclosed in WO 2008/138894; cited from earlier work

Molecule: CNC(=O)[C@H](Cc1c[nH]c2ccccc12)NC(=O)[C@@H](CC(=O)NO)CC(C)C [GM6001]
concentration of endostatin in supernatants (endostatin): 4.4 ng/mg of protein of the lysates/48 hrs | decrease of endostatin compared to the control (endostatin): about 30%

Molecule: N.N.[Cl][Pt][Cl] [cisplatin, Cis-diammine platinum II dichloride]
tumors under treatment (UMUC-3 cells): reduced | tumor volume (Calu-6 cells): significant decrease in tumor volume | average tumoral volume (NCI-H460 cells; cisplatin 2.5 mg/kg i.p.): 1017±119.8 mm^3 | average tumoral volume (NCI-H460 cells; cisplatin alone 5 mg/kg i.p.): 626±118.5 mm^3

Molecule: GNYYCSVTPWVKS [P3]
inhibition of HUVECs proliferation (HUVECs [1]; 66 μM, n=3): 50%±1.2% | decrease of CD151 level compared to mice treated with the solvent (CD151 [2]): 73% | inhibition of the tumor growth in vivo (NCI-H460 cells; Example 5, P3 200 μL of 1 mg/mL /injection/48 hrs i.p.): 64.79±4.37% | Weight difference between day 1 and day 13 [3]: 10.2 ± 9% | Weighted average of mice after 13 days of the treatment [3]: 24.6 ± 0.4 | Weight difference between day 1 and day 13 ([3]; 10 mg/kg): 6 ± 2% | Weighted average of mice after 13 days of the treatment ([3]; 10 mg/kg): 26.2 ± 2.9

change in CD9P-1 (CD9P-1 [8]): No change
Molecule: IHSKPVFITVKMDVLNA [P4]
capillary tubes formation (capillaries length and junctions number) (HUVECs [4]): significant decrease of both capillaries length and junctions number | inhibition of hemoglobin amount in implants compared to group 1 (solvent) [5]: 29.2±8.4% | color of implants [5]: yellow color with some red points | decrease of the band corresponding to CD151 (28 kDa, normalized to GAPDH, vs solvent) (CD151 [6]): 51% | CD9P-1 level (CD9P-1 [7]): does not change

Molecule: VSWFAVHSFGLDKAPVLLSS (Peptide 1) [P1]
effect on HUVECs proliferation (HUVECs [1]): No effect | color of implants [5]: red color

B1: 168A-T2: fragment of the extracellular domain of protein 168A (CD9P-1) (protein)
chain: MAFDVSWFAVHSFGLDKAPVLLSSLDRKGIVTTSRRDWKSDLSLERVSVLEFLLQVHGSEDQDFGNYYCSVTPWVKSPTGSWQKEAEIHSKPVFITVKMDVLNAFKYP
modifications: peptide 168A-T2
potency relative to the anti-VEGF mAb and/or VEGF receptor (KDR)-based identified peptides (endothelial cells): at least 600 fold
